Test results as given in patent US9365541B2, “Compounds for use in the treatment of parasitic diseases” (IRBM—SCIENCE PARK S.P.A., priority 2012, dated 2016).

Key:
[1] = tested on: Plasmodium falciparum 3D7; experiment: P. falciparum growth inhibition assay (Pf-LDH); assay type: cell-based; details: Plasmodium falciparum, Erythrocyte; P. falciparum 3D7 infected erythrocytes, 72 h incubation, PfLDH readout
Method: Basic culture of Plasmodium falciparum 3D7 parasites (Malaria Research and Reference Reagent Resource Center (MR4), MR4 Number: MRA-102).
Starting with a culture with a parasitemia of about 10% (and 5% hematocrit), 0.5 ml of the culture is placed in a fresh 100 mm petri dish with 0.95 ml of fresh erythrocytes (50% hematocrit) and 8.55 ml of culture medium, giving a new starting parasitemia of 0.5%. The petri dish is then incubated at 37° C. in a humidified gas-tight plastic box flushed with a gas mixture consisting of 93% N2, 4% CO2, and 3% O2. The culture medium is changed daily. The supernatant is removed by gently tipping the dish without disturbing the settled cells and aspirating the medium with a Pasteur pipette connected to a vacuum pump. A small amount of the concentrated cells is taken to prepare a blood smear for determination of the parasitemia. Normally, the cultures are split twice a week. If the parasites are growing very slowly then fresh erythrocytes are added to the culture no later than after 7 days. The cultures are then split 1:2 if the parasitemia is lower than 0.5%. To avoid the necessity of daily medium change on weekends, a culture with a 2.5% hematocrit and 0.1-0.2% parasitemia is set up and can be left for 3 days without medium change.
Standard medium consists of RPMI 1640, supplemented with 25 mM HEPES, 24 mM NaHCO3, 0.36 mM hypoxanthine, 100 μg/ml Neomycin, 5 g/1 Albumax® II, and washed human red blood cells (rbcs) A+.
P. falciparum Growth Inhibition Assay (Pf-LDH)
Compounds of the invention were assessed for in vitro antimalarial activity against a cloroquine sensitive (3D7) strain of the malaria parasite Plasmodium falciparum, using a lactate dehydrogenase (PfLDH) assay.
EC50 Determination by Pf-LDH Assay
384 plates (where compounds to be tested are dispensed) with 25 μl of parasite inoculum (parasitemia: 0.25%, hematocrit: 2%) are incubated at 37° C. in an atmosphere of 4% CO2, 3% O2, 93% N2. After 72 h of incubation, plates are frozen at −70° C. overnight and thawed at room temperature for at least 4 h. To evaluate PfLDH activity, 70 μl of freshly made reaction mix (143 mM sodium L-lactate, 143 μM 3-acetyl pyridine adenine dinucleotide (APAD), 178.75 μM Nitro Blue tetrazolium chloride (NBT), 286 μg/ml diaphorase (2.83 U/ml), 0.7% Tween 20, 100 mM Tris-HCl pH 8.0) is dispensed using a Multidrop Combi dispenser. Plates are shaken to ensure mixing and absorbance at 650 nm is monitored in a plate reader after 10 min of incubation at room temperature.
Negative controls (0% Effect) are produced by addition of DMSO to the proper wells.
Positive controls (100% Effect) are produced by addition of 150 nM Artemisinin (Sigma-Aldrich, 361593)
After result normalization using positive and negative controls, compound potency is determined by fitting the following equation: % inh=Ymin+(Ymax−Ymin)/(1+(X/EC50)^slope)) Where: • Ymin=minimum percentage effect • Ymax=maximum percentage effect • EC50=the concentration of the compound at which 50% effect is reached • Slope=the slope of the curve calculated at the EC50 Histone Hyperacetylation and Immunodetection of Altered Histone Modifications Assay

human HDAC1 = target: T1, human HDAC1 (Homo sapiens, UniProt Q13547); experiment: Homo sapiens HDAC1 inhibition assay (Fluor-de-Lys, enzymatic); assay type: biochemical; details: human HDAC enzymatic assay; read-out: hHDAC IC50
T1 construct: made in house; host or cells: HeLa (ATCC CCL-2), mammalian cells
Method: Biology Homo sapiens HDAC1 Inhibition Assay Overview:
The aim of the assay is to evaluate the inhibition of the deacetylase activity of human HDAC1. To such goal an acetylated substrate is added to the enzyme mix; the resulting enzymatic product is converted to a fluorescent molecule by the addition the enzyme trypsine (developer solution). Fluorescence intensity is inversely proportional to the rate of inhibition of the enzyme (as indicated in the material section below).
Reagents of the HDAC Fluorescent Activity Assay are purchased from Enzo Life Sciences (http://www.enzolifesciences.com/BML-AK500/fluor-de-lys-hdac-fluorometric-activity-assay-kit/) and feature the Fluor-de-Lys™ Substrate/Developer System.
c) Trichostatin A (TSA) Stock
TSA (Sigma-Aldrich, T8552) is provided as a 10 mM stock solution in 100% dimethylsulfoxide (DMSO).
Diluted Substrate Solution
The final concentration in the assay is 20 μM.
Diluted Developer Solution
2 μM [final] TSA to this solution increases its ability to stop the reaction.
The HDAC1 enzyme is diluted in assay buffer prior to each use from a fresh aliquot of enzyme.
The final concentration in the assay is 1-2 nM.
Test compounds should be prepared in 100% DMSO and transferred to the assay by a nano volume dispenser to reach the appropriate concentration and the appropriate DMSO concentration (0.25%) in the reaction.

T1 sequence (Q13547 whole entry): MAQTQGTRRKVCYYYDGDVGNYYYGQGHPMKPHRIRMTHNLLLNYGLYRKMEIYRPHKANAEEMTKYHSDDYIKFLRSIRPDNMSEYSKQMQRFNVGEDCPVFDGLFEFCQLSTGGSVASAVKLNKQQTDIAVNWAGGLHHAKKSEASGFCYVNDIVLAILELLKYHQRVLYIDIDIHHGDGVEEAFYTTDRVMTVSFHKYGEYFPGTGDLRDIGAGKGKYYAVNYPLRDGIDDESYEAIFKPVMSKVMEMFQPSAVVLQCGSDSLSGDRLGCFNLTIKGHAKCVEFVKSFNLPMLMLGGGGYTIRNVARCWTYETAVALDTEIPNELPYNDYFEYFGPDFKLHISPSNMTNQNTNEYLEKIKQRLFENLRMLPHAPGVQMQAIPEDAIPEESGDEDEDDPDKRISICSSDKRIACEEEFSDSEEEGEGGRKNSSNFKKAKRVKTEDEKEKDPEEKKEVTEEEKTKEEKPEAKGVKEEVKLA

Row | Compound | EC50 [1] [nM] | IC50 (human HDAC1) [nM]
1 | CNC(=O)CCCCC[C@H](NC(=O)c1cnsn1)c1ncc(-c2ccc3ccccc3c2)[nH]1 [Entry 45, (S)-N-(7-(methylamino)-1-(5-(naphthalen-2-yl)-1H-imidazol-2-yl)-7-oxoheptyl)-1,2,5-thiadiazole-3-carboxamide] | > 5000 | 1000 to 5000
2 | CNC(=O)CCCCC[C@H](NC(=O)c1cnsc1)c1ncc(-c2ccc3ccncc3c2)[nH]1 [Entry 46, (S)-N-(1-(5-(isoquinolin-7-yl)-1H-imidazol-2-yl)-7-(methylamino)-7-oxo-heptyl)isothiazole-4-carboxamide] | < 1000 | < 1000
3 | CNC(=O)CCCCC[C@H](NC(=O)c1cscn1)c1ncc(-c2ccc3ccncc3c2)[nH]1 [Entry 47, (S)-N-(1-(5-(isoquinolin-7-yl)-1H-imidazol-2-yl)-7-(methylamino)-7-oxoheptyl)thiazole-4-carboxamide] | 1000 to 5000 | > 5000
4 | CNC(=O)CCCCC[C@H](NC(=O)C1CC1c1ccncc1)c1ncc(-c2ccc3ccncc3c2)[nH]1 (stereo partly drawn) [Entry 48, N-((S)-1-(5-(isoquinolin-7-yl)-1H-imidazol-2-yl)-7-(methylamino)-7-oxoheptyl)-2-(pyridin-4-yl)cyclopropane-carboxamide] | 1000 to 5000 | 1000 to 5000
5 | CNC(=O)CCCCC[C@H](NC(=O)c1cnc(C)s1)c1ncc(-c2ccc3ccncc3c2)[nH]1 [Entry 49, (S)-N-(1-(5-(isoquinolin-7-yl)-1H-imidazol-2-yl)-7-(methylamino)-7-oxoheptyl)-2-methylthiazole-5-carboxamide] | < 1000 | < 1000
6 | CNC(=O)CCCCC[C@H](NC(=O)c1cnn(C(C)C)c1)c1ncc(-c2ccc(-c3ccn(C)n3)cc2)[nH]1 [Entry 50, (S)-1-isopropyl-N-(1-(5-(4-(1-methyl-1H-pyrazol-3-yl)phenyl)-1H-imidazol-2-yl)-7-(methylamino)-7-oxoheptyl)-1H-pyrazole-4-carboxamide] | < 1000 | 1000 to 5000
7 | CNC(=O)CCCCC[C@H](NC(=O)c1cncs1)c1ncc(-c2cc3ccccc3s2)[nH]1 [Entry 51, (S)-N-(1-(5-(benzo[b]thiophen-2-yl)-1H-imidazol-2-yl)-7-(methylamino)-7-oxoheptyl)thiazole-5-carboxamide] | 1000 to 5000 | 1000 to 5000
8 | CNC(=O)CCCCC[C@H](NC(=O)c1cncs1)c1ncc(-c2ccc(C#N)cc2)[nH]1 [Entry 52, (S)-N-(1-(5-(4-cyanophenyl)-1H-imidazol-2-yl)-7-(methylamino)-7-oxoheptyl)thiazole-5-carboxamide] | > 5000 | 1000 to 5000
9 | CNC(=O)CCCCC[C@H](NC(=O)c1cncs1)c1ncc(-c2ccc(NC(C)=O)cc2)[nH]1 [Entry 53, (S)-N-(1-(5-(4-acetamidophenyl)-1H-imidazol-2-yl)-7-(methylamino)-7-oxoheptyl)thiazole-5-carboxamide] | 1000 to 5000 | 1000 to 5000
10 | CNC(=O)CCCCC[C@H](NC(=O)c1cncs1)c1ncc(-c2cc3cc(OC)ccc3[nH]2)[nH]1 [Entry 54, (S)-N-(1-(5-(5-methoxy-1H-indol-2-yl)-1H-imidazol-2-yl)-7-(methylamino)-7-oxoheptyl)thiazole-5-carboxamide] | 1000 to 5000 | 1000 to 5000
11 | COc1nc2ccccc2cc1-c1cnc([C@H](CCCCCC(N)=O)OC(=O)C23CCN(CC2)CC3)o1 [Entry 55] | 1000 to 5000 | < 1000
12 | CNC(=O)CCCCC[C@H](OC(=O)C12CCN(CC1)CC2)c1ncc(-c2cc3ccccc3nc2OC)o1 [Entry 56] | 1000 to 5000 | < 1000
13 | CNC(=O)CCCCC[C@H](NC(=O)c1cncs1)c1ncc(-c2ccc(Cl)cc2OC)[nH]1 [Entry 57, (S)-N-(1-(5-(4-chloro-2-methoxyphenyl)-1H-imidazol-2-yl)-7-(methylamino)-7-oxoheptyl)thiazole-5-carboxamide] | 1000 to 5000 | 1000 to 5000
14 | CNC(=O)CCCCC[C@H](NC(=O)Cn1ccnn1)c1ncc(-c2ccc3ccncc3c2)[nH]1 [Entry 58, (S)-7-(2-(1H-1,2,3-triazol-1-yl)acetamido)-7-(5-(isoquinolin-7-yl)-1H-imidazol-2-yl)-N-methylheptanamide] | 1000 to 5000 | 1000 to 5000
15 | CNC(=O)CCCCC[C@H](NC(=O)c1cncs1)c1ncc(-c2ccc(-c3cc(C)[nH]n3)cc2)[nH]1 [Entry 59, (S)-N-(1-(5-(4-(5-methyl-1H-pyrazol-3-yl)phenyl)-1H-imidazol-2-yl)-7-(methylamino)-7-oxoheptyl)thiazole-5-carboxamide] | 1000 to 5000 | 1000 to 5000
16 | CNC(=O)CCCCC[C@H](NC(=O)c1cncs1)c1ncc(-c2ccc(CN)cc2)[nH]1 [Entry 60, (S)-N-(1-(5-(4-(amino-methyl)phenyl)-1H-imidazol-2-yl)-7-(methylamino)-7-oxoheptyl)thiazole-5-carboxamide] | > 5000 | 1000 to 5000
17 | CNC(=O)CCCCC[C@H](NC(=O)C1CC(=O)Nc2ccccc21)c1ncc(-c2ccc(-n3cccn3)cc2)[nH]1 (stereo partly drawn) [Entry 61, N-((S)-1-(5-(4-(1H-pyrazol-1-yl)phenyl)-1H-imidazol-2-yl)-7-(methylamino)-7-oxoheptyl)-2-oxo-1,2,3,4-tetrahydroquinoline-4-carboxamide] | 1000 to 5000 | 1000 to 5000
18 | CNC(=O)CCCCC[C@H](NC(=O)Cn1ccnn1)c1ncc(-c2ccc(-n3cccn3)cc2)[nH]1 [Entry 62, (S)-7-(2-(1H-1,2,3-triazol-1-yl)acetamido)-7-(5-(4-(1H-pyrazol-1-yl)phenyl)-1H-imidazol-2-yl)-N-methylheptanamide] | > 5000 | > 5000
19 | CNC(=O)CCCCC[C@H](NC(=O)Cc1nc(-c2ccccc2)cs1)c1ncc(-c2ccc3ccccc3c2)[nH]1 [Entry 63] | 1000 to 5000 | 1000 to 5000
20 | CNC(=O)CCCCC[C@H](NC(=O)c1cccc(N2CCOCC2)c1)c1ncc(-c2ccc3ccccc3c2)[nH]1 [Entry 64, (S)-N-(7-(methylamino)-1-(5-(naphthalen-2-yl)-1H-imidazol-2-yl)-7-oxoheptyl)-3-morpholino-benzamide] | 1000 to 5000 | > 5000
21 | CNC(=O)CCCCC[C@H](NC(=O)c1cnc(CN2CCCC2)s1)c1ncc(-c2ccc3ccncc3c2)[nH]1 [Entry 65, (S)-N-(1-(5-(isoquinolin-7-yl)-1H-imidazol-2-yl)-7-(methylamino)-7-oxoheptyl)-2-(pyrrolidin-1-ylmethyl)thiazole-5-carboxamide] | < 1000 | < 1000
22 | CNC(=O)CCCCC[C@H](NC(=O)CN1CCCC1)c1ncc(-c2ccc3ccncc3c2)[nH]1 [Entry 66] | > 5000 | 1000 to 5000
23 | CNC(=O)CCCCC[C@H](NC(=O)c1ccns1)c1ncc(-c2ccc3ccncc3c2)[nH]1 [Entry 67] | < 1000 | < 1000
24 | CNC(=O)CCCCC[C@H](NC(=O)Cc1nc(C)cs1)c1ncc(-c2ccc3ccncc3c2)[nH]1 [Entry 68] | > 5000 | 1000 to 5000
